This is an account of results in PMC8557474, “Reliability of the AR-CALUX®In Vitro Method Used to Detect Chemicals with (Anti)Androgen Activity: Results of an International Ring Trial” (Toxicological Sciences, 2021).

Converted amounts (≈) assume the structure as drawn.

The nature of this data set: physchem. The procedure:
It details the cell cultivation and seeding procedure, the preparation of the reference, control and test chemicals, the procedure for agonist testing and antagonist testing, prescreen runs, and comprehensive runs, as well as data analysis and data interpretation. This SOP also includes references to the SOPs for solubility testing and cytotoxicity testing. […] Solubility was tested both in the solvent and in media under similar circumstances as would be required during the (ant)agonist testing. The initial concentration to be tested was prescribed at 50 mg/ml. Starting from the highest soluble concentration, cytotoxicity was determined with an LDH assay. Visual checking of cytotoxicity in all wells of the plate was however also required for each run.
This included an investigation by heating, centrifugation, microscopy, and visual checking. […] For the purpose of the validation study, the labs were requested to start from 50 mg/ml as the maximal stock concentration to be tested.

[1] abbreviates: aqueous buffer, kinetic from dmso stock, Solubility in medium, Lab 1, assay medium, Lab 1.
[2] abbreviates: aqueous buffer, kinetic from dmso stock, Solubility in medium, Lab 2, assay medium, Lab 2.
Where [3] appears, read: aqueous buffer, kinetic from dmso stock, Solubility in medium, Lab 3, assay medium, Lab 3.
Where [4] appears, read: aqueous buffer, kinetic from dmso stock, Solubility in medium, Lab 4, assay medium, Lab 4.
Setting [5] is: organic solvent or mixture, thermodynamic from solid, Solubility in DMSO, Lab 1, DMSO, Lab 1, highest tested 50 mg/ml.
Where [6] appears, read: organic solvent or mixture, thermodynamic from solid, Solubility in DMSO, Lab 2, DMSO, Lab 2, highest tested 50 mg/ml.
Setting [7] is: organic solvent or mixture, thermodynamic from solid, Solubility in DMSO, Lab 3, DMSO, Lab 3, highest tested 50 mg/ml.
Setting [8] is: organic solvent or mixture, thermodynamic from solid, Solubility in DMSO, Lab 4, DMSO, Lab 4, highest tested 50 mg/ml.
Setting [9] is: DMSO, organic solvent or mixture, thermodynamic from solid, Solubility in DMSO, Lab 1, DMSO, Lab 1, highest tested 50 mg/ml.
The mark [10] stands for this setting: DMSO, organic solvent or mixture, thermodynamic from solid, Solubility in DMSO, Lab 2, DMSO, Lab 2, highest tested 50 mg/ml.
[11] abbreviates: DMSO, organic solvent or mixture, thermodynamic from solid, Solubility in DMSO, Lab 3, DMSO, Lab 3, highest tested 50 mg/ml.
Setting [12] is: DMSO, organic solvent or mixture, thermodynamic from solid, Solubility in DMSO, Lab 4, DMSO, Lab 4, highest tested 50 mg/ml.
[13] abbreviates: assay medium, aqueous buffer, kinetic from dmso stock, Solubility in medium, Lab 1, assay medium, Lab 1.
The mark [14] stands for this setting: assay medium, aqueous buffer, kinetic from dmso stock, Solubility in medium, Lab 2, assay medium, Lab 2.
The mark [15] stands for this setting: assay medium, aqueous buffer, kinetic from dmso stock, Solubility in medium, Lab 3, assay medium, Lab 3.
Where [16] appears, read: assay medium, aqueous buffer, kinetic from dmso stock, Solubility in medium, Lab 4, assay medium, Lab 4.
Where [17] appears, read: DMSO, Lab 1, highest tested 50 mg/ml.
Setting [18] is: DMSO, Lab 2, highest tested 50 mg/ml.
The mark [19] stands for this setting: DMSO, Lab 3, highest tested 50 mg/ml.
Where [20] appears, read: DMSO, Lab 4, highest tested 50 mg/ml.

A word on the solubility: it is the dissolved amount per volume that the medium holds. For `CCCCOC(=O)c1ccccc1C(=O)OCc1ccccc1` [Benzylbutyl phthalate], the solubility runs as follows: under setting [1], 1.5 µg/mL (≈ 4.8 µM); under setting [2], over 50 µg/mL; under setting [3], 15 µg/mL (≈ 48 µM); under setting [4], 15 µg/mL (≈ 48 µM); under setting [5], over 50000 µg/mL; under setting [6], over 50000 µg/mL. Further, the solubility is, setting by setting: under setting [7], over 50000 µg/mL; under setting [8], over 50000 µg/mL.

For the compound `CC(O)(CS(=O)(=O)c1ccc(F)cc1)C(=O)Nc1ccc(C#N)c(C(F)(F)F)c1` (stereo not drawn) [Bicalutamide], the solubility under setting [9] is over 50000 µg/mL; the solubility under setting [10] is over 50000 µg/mL; the solubility under setting [11] was over 50000 µg/mL; the solubility under setting [12] was over 50000 µg/mL; the solubility under setting [13] was over 50 µg/mL; the solubility under setting [14] was over 50 µg/mL. Moreover, the solubility by setting is: under setting [15], over 50 µg/mL; under setting [16], over 50 µg/mL.

Consider `CCCCC(CC)COC(=O)c1ccccc1C(=O)OCC(CC)CCCC` (stereo not drawn) [Diethylhexyl phthalate], for which the “Solubility in DMSO, Lab 1” value under setting [17] was 15 mg/mL (≈ 38400 µM). Moreover, the “Solubility in DMSO, Lab 2” value under setting [18] was over 50 mg/mL. The “Solubility in DMSO, Lab 3” value under setting [19] was over 50 mg/mL. Moreover, under setting [20], the “Solubility in DMSO, Lab 4” value was over 50 mg/mL. In addition, the “Solubility in medium, Lab 1” value (assay medium, Lab 1) came to 15 µg/mL (≈ 38.4 µM). Further, under “assay medium, Lab 2”, the “Solubility in medium, Lab 2” value was determined as 15 µg/mL (≈ 38.4 µM). Further, for the setting “assay medium, Lab 3”, the “Solubility in medium, Lab 3” value is over 50 µg/mL. Further, the “Solubility in medium, Lab 4” value (assay medium, Lab 4) was over 50 µg/mL.

For the compound `C[C@]1(O)CC[C@H]2[C@@H]3CCC4=CC(=O)CC[C@]4(C)[C@@]3(F)[C@@H](O)C[C@@]21C` [Fluoxymesterone], the solubility runs as follows: under setting [1], 5 µg/mL (≈ 14.9 µM); under setting [2], 5 µg/mL (≈ 14.9 µM); under setting [3], 5 µg/mL (≈ 14.9 µM); under setting [4], 15 µg/mL (≈ 44.6 µM); under setting [5], over 50000 µg/mL; under setting [6], 5000 µg/mL (≈ 14900 µM). Moreover, the solubility is over 50000 µg/mL under setting [7] and over 50000 µg/mL under setting [8].

Regarding `CC(=O)O[C@]1(C(C)=O)CC[C@H]2[C@@H]3C[C@H](C)C4=CC(=O)CC[C@]4(C)[C@H]3CC[C@@]21C` [Medroxyprogesterone acetate], the solubility is 1500 µg/mL under setting [9]; 15000 µg/mL under setting [10]; 15000 µg/mL under setting [11]; 5000 µg/mL under setting [12]; 1.5 µg/mL under setting [13]; 5 µg/mL under setting [14]. In addition, the solubility was 15 µg/mL under setting [15] and 5 µg/mL under setting [16].

For the compound `C[C@]12CCC(=O)C[C@@H]1CC[C@@H]1[C@@H]2CC[C@@]2(C)[C@H]1CC[C@]2(C)O` [Methyldihydrotestosterone], the “Solubility in DMSO, Lab 1” value under setting [17] stood at 5 mg/mL (≈ 16400 µM). The “Solubility in DMSO, Lab 2” value under setting [18] was determined as 5 mg/mL (≈ 16400 µM). In addition, the “Solubility in DMSO, Lab 3” value under setting [19] was 15 mg/mL (≈ 49300 µM). Further, under setting [20], the “Solubility in DMSO, Lab 4” value is 15 mg/mL (≈ 49300 µM). Besides, the “Solubility in medium, Lab 1” value (assay medium, Lab 1) was determined as 5 µg/mL (≈ 16.4 µM). Further, for the setting “assay medium, Lab 2”, the “Solubility in medium, Lab 2” value stood at 5 µg/mL (≈ 16.4 µM). Under “assay medium, Lab 3”, the “Solubility in medium, Lab 3” value stood at 5 µg/mL (≈ 16.4 µM). In addition, the “Solubility in medium, Lab 4” value (assay medium, Lab 4) stood at 5 µg/mL (≈ 16.4 µM).

As for `CC(=O)S[C@@H]1CC2=CC(=O)CC[C@]2(C)[C@H]2CC[C@@]3(C)[C@@H](CC[C@@]34CCC(=O)O4)[C@H]12` [Spironolactone], the solubility by setting is: under setting [9], 15000 µg/mL (≈ 36000 µM); under setting [10], over 50000 µg/mL; under setting [11], over 50000 µg/mL; under setting [12], over 50000 µg/mL; under setting [13], 15 µg/mL (≈ 36 µM); under setting [14], over 50 µg/mL. Further, the solubility runs as follows: under setting [15], over 50 µg/mL; under setting [16], over 50 µg/mL.

Turning to `C[C@]12Cc3c[nH]nc3C[C@@H]1CC[C@@H]1[C@@H]2CC[C@@]2(C)[C@H]1CC[C@]2(C)O` [Stanozolol], the solubility runs as follows: under setting [1], 5 µg/mL (≈ 15.2 µM); under setting [2], 5 µg/mL (≈ 15.2 µM); under setting [3], 2 µg/mL (≈ 6.09 µM); under setting [4], 5 µg/mL (≈ 15.2 µM); under setting [5], 5000 µg/mL (≈ 15200 µM); under setting [6], over 50000 µg/mL. In addition, the solubility under setting [7] is 15000 µg/mL (≈ 45700 µM) and the solubility under setting [8] was over 50000 µg/mL.

Consider `C=CC1(C)OC(=O)N(c2cc(Cl)cc(Cl)c2)C1=O` (stereo not drawn) [Vinclozolin], for which the solubility is 5 µg/mL (≈ 17.5 µM) under setting [1]; 15 µg/mL (≈ 52.4 µM) under setting [2]; 15 µg/mL (≈ 52.4 µM) under setting [3]; 15 µg/mL (≈ 52.4 µM) under setting [4]; over 50000 µg/mL under setting [5]; over 50000 µg/mL under setting [6]. Besides, the solubility is over 50000 µg/mL under setting [7] and over 50000 µg/mL under setting [8].
